Experiments:
B16-OVA melanoma = experiment: Adoptive transfer of OT-II Th9 cells, B16-OVA tumor growth in β2m-KO mice (Figure 2H); format: in vivo; settings: result in words
Excerpt: (A) Schematic of the therapeutic model. C57BL/6 mice were subcutaneously inoculated with B16-OVA melanoma cells (5 × 10^5) and preconditioned with cyclophosphamide (CTX) on day 4. […] (B–G) Flow-cytometric analysis of transferred CD45.1^+ OT-II Th9 cells (B and C) and endogenous CD4^+ (D and E) and CD8^+ T cells (F and G) in spleens and tumors, showing frequencies and absolute numbers (n = 4 mice per group). (H) Tumor growth curves in B16-OVA–bearing C57BL/6 or β2-microglobulin–deficient (β2m-KO) mice following transfer of control or EpA-treated OT-II Th9 cells (n = 4 mice per group). (I) C57BL/6 mice bearing B16-OVA tumors were treated with control or EpA-induced OT-II Th9 cells (2 × 10^6, i.v., day 5), followed by anti–PD-1 antibody (200 μg, i.p.) on day 7, and (100 μg, i.p.) on day 10 and 12. Tumor growth is shown with individual trajectories (n = 6 mice per group). Statistical analysis was performed using 2-tailed unpaired Student’s t test ([…], B–G) or 1-way ANOVA with Tukey’s post hoc test (H and I). All data are presented as the mean ± SEM. *P < 0.05, **P < 0.01, ***P < 0.001. Schematic in A created using BioRender (https://Biorender.com).
To directly assess the requirement for endogenous CD8^+ T cells, we utilized β2-microglobulin–deficient (β2m-KO) mice, which lack functional MHC class I and are therefore devoid of CD8^+ T cells ([32]). […]

phosphorylated ZAP70 = experiment: Flow cytometry of phosphorylated ZAP70 in human Th9 cells (Figure 8F); format: cell-based; settings: result in words
Experimental: For Th9 polarization, cultures were supplemented with IL-4 (10 ng/mL, PeproTech, catalog AF-200-04), TGF-β (1 ng/mL), and neutralizing anti–IFN-γ monoclonal antibody (10 μg/mL, clone B27, BioXcell, catalog BE0245). After 3 days of initial culture, cells were either collected for downstream assays or continued in extended culture with refreshed cytokines to maintain lineage commitment without antibodies. Th9 cells were collected at days 4, 5, and 6 for subsequent in vitro assays. For adoptive transfer studies, day 4–cultured Th9 cells were washed and prepared for intravenous injection.
Details regarding staining panels (human and mouse), reagents (including clones and catalog numbers), acquisition settings, compensation/controls, and analysis procedures are provided in Supplemental Methods.
MH9A4, Biolegend, Cat. No. 507605, PE/Cy7, clone MH9A4, Biolegend, Cat. No. […]
clone Mab11, Biolegend, Cat. No. 502908), Perforin (APC, clone dG9, Biolegend, Cat.
Flow cytometric acquisition was performed using a BD Fortessa or Cytek Aurora cytometer. Data were analyzed with FlowJo software (v10.8.1 or newer). Fluorescence compensation, isotype-matched controls, and fluorescence-minus-one (FMO) controls were applied as appropriate for multicolor panel validation.
Cells were washed twice with PBS and lysed in 1 × lysis buffer (NCM, Cat. No. […]

With anteiso-C15 Leu7 surfactin [EpA] the “enhanced antitumor efficacy in β2m-KO hosts” value (B16-OVA melanoma) was “completely abolished” and the “ZAP70 phosphorylation, human Th9” value (phosphorylated ZAP70) was “increased phosphorylation of ZAP70”.

From PMC12867150, “A fungi-derived cyclic peptide enhances Th9-mediated antitumor immunity by targeting ZAP70 and SREBP1” (The Journal of Clinical Investigation, 2025)
